Results published in patent US20240398781A1, “SPIROCYCLIC CYCLIC MODULATORS OF CHOLESTEROL BIOSYNTHESIS AND THEIR USE FOR PROMOTING REMYELINATION” (GENENTECH, INC., priority 2021, published 2024).
Where two headings read alike, the source gives them in different places.

Legend:
[1] = test system: EpiSC-derived OPCs; assay: In vitro phenotypic screening of OPCs (MBP staining, high-content imaging); format: cell-based, mouse; conditions: percentage of MBP+ oligodendrocytes, 3 days, 0.5 nM to 1000 nM, read-out: OPC EC50
How it was run: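 Readout: high-content imaging of MBP immunostaining around DAPI nuclei, giving percent oligodendrocytes, with EC50 from a Levenberg-Marquardt Hill fit. Epiblast stem cell-derived OPCs were plated on laminin at 150,000/cm^2 in growth-factor-free N2B27. They were exposed 3 days to an 8-point series, 0.5-1000 nM final, in two or more independent platings.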

[2] = biological target: human EBP (Homo sapiens (Human), UniProt Q15125); assay: Competition binding assay (SPA, [3H]-Ifenprodil) to determine compound affinity to EBP; conditions: [3H]-Ifenprodil 10 nM, HEK293 membrane overexpressing human EBP, Ki=IC50/(1+[L]/Kd); read-out: hEBP SPA Ki
Sequence of human EBP (Q15125 whole entry): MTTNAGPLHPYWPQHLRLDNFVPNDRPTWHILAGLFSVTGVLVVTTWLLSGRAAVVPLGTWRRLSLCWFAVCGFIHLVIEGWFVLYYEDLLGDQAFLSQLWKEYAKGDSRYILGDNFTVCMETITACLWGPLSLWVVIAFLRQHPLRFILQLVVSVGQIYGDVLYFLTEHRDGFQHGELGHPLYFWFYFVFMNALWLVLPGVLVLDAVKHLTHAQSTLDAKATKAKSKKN
Procedure: Membrane preparation: To examine compound binding affinity to EBP, human EBP was overexpressed in human embryonic kidney 293 cells. Cell pellet was lysed in 10 times weight binding buffer (50 mM Tris, 5 mM MgCl2, 0.1 mM EDTA, lx protease inhibitor cocktail, pH 7.5) on ice by using a dounce homogenizer. The solution was centrifuged at 25,000 g for 50 min at 4° C. The membrane pellet was re-suspended in binding buffer and run through a 25 5/8 gauge needle. After checking the concentration by Bradford assay, the whole cell membrane solution was adjusted to 20 mg/mL and stored at −80° C.
This binding solution was centrifuged at 400 g for 5 minutes to collect the bead/membrane mixture. After re-suspending the pellet in binding buffer at the same calculated volume with 0.01% BSA (Sigma A1933), the bead/membrane mixture was added in 384-well low-binding surface plate (PerkinElmer Cat #6057480) at 25 μl/well. Radioligand at different concentrations with and without the non-radio-labeled same ligand 5 uM (for nonspecific and total signal, respectively) was added to bring final volume to 50 µl/well with DMSO concentration at 0.1%. At equilibrium (3 hours after ligand addition), radiometric signal CPM was counted by using a Microbeta2 microplate counter (Perkinelmer).
Competition binding assay to determine compound affinity: The same conditions of the radioligand Kd study were used for compound single dose percentage inhibition and equilibrium dissociation constant Ki examinations, except 50 nL compound DMSO stock was pre-added in 384-well low-binding surface plate (PerkinElmer Cat #6057480) by Echo 550 (Labcyte) to reach the final concentration for single dose test at 1 uM, and dose response test from 0.06 nM to 5 uM (8 dose, 5 times dilution). A pre-incubated bead/membrane mixture was added in compound plate at 0.3 mg beads and […] membrane per well. […] At equilibrium (3 hours after ligand addition), radiometric signal was counted as described above. The percentage inhibition of compound at each testing concentration was calculated by normalizing each condition's CPM readout to full block (5 uM non-radiolabeled ligand) and non-block (DMSO) control conditions. Compound binding inhibition IC50 was determined by nonlinear regression fitting of percentage inhibition plot against compound concentration. Compound Ki was calculated from the equation Ki=IC50/(1+[L]/Kd), which [L] was radioligand concentration used in assay. All tests had N bigger or equal to 2.

SMILES | EC50 ([1]; Mus musculus, 72 h) [nM] | Ki [2] [nM] | EC50 [1] [nM]
CC(C)n1nc(-c2cncc(C(F)(F)F)c2)cc1[C@@H]1CC[C@@H](N2CCC3(C2)CS(=O)(=O)C3)C1 (single isomer, unassigned) [13C*] | 21 | 21 | 
Cc1cc(C(F)(F)F)ncc1N1CCC(N2CCC3(C2)CS(=O)(=O)C3)CC1 [Compound 28, 6-(1-(4-Methyl-6-(trifluoromethyl)pyridin-3-yl)piperidin-4-yl)-2-thia-6-azaspiro[3.4]octane 2,2-dioxide] | 64 | 33 | 
Cn1nc(C(F)(F)F)cc1[C@H]1CC[C@H](N2CC[C@@]3(CCS(=O)(=O)C3)C2)CC1 (single isomer, unassigned) [38D*] |  | 27 | 200
O=S1(=O)CC2(CCN(C3CCN(c4ccc(C(F)(F)F)cc4)CC3)C2)C1 [Compound 4, 6-(1-(4-(trifluoromethyl)phenyl)piperidin-4-yl)-2-thia-6-azaspiro[3.4]octane 2,2-dioxide] | 23 | 26 | 
Cc1cc(F)cnc1N1CCC(N2CCC3(C2)CS(=O)(=O)C3)CC1 [Compound 31, 6-(1-(5-fluoro-3-methylpyridin-2-yl)piperidin-4-yl)-2-thia-6-azaspiro[3.4]octane 2,2-dioxide] | 190 | 59 | 
Cn1nc(C(F)(F)F)cc1[C@H]1CC[C@H](N2CCC[C@]3(CCS(=O)(=O)C3)C2)CC1 (single isomer, unassigned) [26B*] | 130 | 21 | 
Cc1cc(C(F)(F)F)cnc1N1CCC(N2CCC3(C2)CS(=O)(=O)C3)CC1 [Compound 7, 6-(1-(3-methyl-5-(trifluoromethyl)pyridin-2-yl)piperidin-4-yl)-2-thia-6-azaspiro[3.4]octane 2,2-dioxide] | 21 | 10 | 
O=S1(=O)CC2(CCN(C3CCN(c4ccc(C(F)(F)F)nc4)CC3)C2)C1 [Compound 5, 6-(1-(6-(trifluoromethyl)pyridin-3-yl)piperidin-4-yl)-2-thia-6-azaspiro[3.4]octane 2,2-dioxide] | 190 | 67 | 
CC(C)n1cc(C(F)(F)F)nc1[C@@H]1CC[C@H](N2CCC3(C2)CS(=O)(=O)C3)C1 (single isomer, unassigned) [20D*] | 260 | 98 | 
Cn1nc(C(F)(F)F)cc1[C@H]1CC[C@H](N2CC[C@]3(CCS(=O)(=O)C3)C2)CC1 (single isomer, unassigned) [27B*] |  | 46 | 130
Cn1nc(C(F)(F)F)cc1[C@H]1CC[C@H](N2CC[C@@]3(CCS(=O)(=O)C3)C2)CC1 (single isomer, unassigned) [27A*] |  | 39 | 53
O=S1(=O)CC2(CCN([C@H]3CO[C@H](c4ccc(C(F)(F)F)cc4)C3)C2)C1 (stereo in doubt) [19D*, 6-((3R,5S)-5-(4-(trifluoromethyl)phenyl)tetrahydrofuran-3-yl)-2-thia-6-azaspiro[3.4]octane 2,2-dioxide] | 160 | 32 | 
Cn1nc(C(F)(F)F)cc1[C@H]1CC[C@H](N2CCC[C@@]3(CCS(=O)(=O)C3)C2)CC1 (single isomer, unassigned) [26A*] | 18 | 33 | 
O=S1(=O)CC2(CCN(C3CCN(c4ncc(C(F)(F)F)cc4Cl)CC3)C2)C1 [Compound 30, 6-(1-(3-chloro-5-(trifluoromethyl)pyridin-2-yl)piperidin-4-yl)-2-thia-6-azaspiro[3.4]octane 2,2-dioxide] | 10 | 39 | 
CC(C)n1nc(-c2cncc(C(F)(F)F)c2)cc1[C@@H]1CC[C@H](N2CCC3(C2)CS(=O)(=O)C3)C1 (single isomer, unassigned) [13B*] | 1.3 | 25 | 
CC(C)n1nc(C(F)(F)F)cc1[C@H]1CC[C@@H](N2CCC3(C2)CS(=O)(=O)C3)C1 (single isomer, unassigned) [10B*] | 20 | 19 | 
O=S1(=O)CC2(CCN([C@@H]3CC[C@H](c4ccc(C(F)(F)F)nc4)C3)C2)C1 (single isomer, unassigned) [11C*] | 24 | 35 | 
CC(C)n1nc(C2CC2)nc1[C@@H]1CC[C@@H](N2CCC3(C2)CS(=O)(=O)C3)C1 (single isomer, unassigned) [18C*] | 240 | 82 | 
CC(C)n1cc(C(F)(F)F)nc1[C@@H]1CC[C@@H](N2CCC3(C2)CS(=O)(=O)C3)C1 (single isomer, unassigned) [20B*] | 340 | 55 | 
CC(C)n1nc(-c2cncc(C(F)(F)F)c2)cc1[C@H]1CC[C@@H](N2CCC3(C2)CS(=O)(=O)C3)C1 (single isomer, unassigned) [13A*] | 1.3 | 15 | 
CC(C)n1nc(C(F)(F)F)cc1[C@H]1CC[C@H](N2CCC3(C2)CS(=O)(=O)C3)C1 (single isomer, unassigned) [10A*] | 18 | 34 | 

Now from value to molecule:

EC50 ([1]; Mus musculus, 72 h) [nM] | Ki [2] [nM] | EC50 [1] [nM] | SMILES
28 | 21 |  | O=S1(=O)CC2(CCN([C@H]3CC[C@H](c4cc(C(F)(F)F)nn4C4CCC4)CC3)C2)C1 [Compound 23B, 6-((1r,4r)-4-(1-Cyclobutyl-3-(trifluoromethyl)-1H-pyrazol-5-yl)cyclohexyl)-2-thia-6-azaspiro[3.4]octane 2,2-dioxide]
240 | 29 |  | O=S1(=O)CC2(CCN([C@H]3CC[C@@H](c4cc(C(F)(F)F)nn4C4CC4)CC3)C2)C1 [Compound 12B, 6-((1s,4s)-4-(1-Cyclopropyl-3-(trifluoromethyl)-1H-pyrazol-5-yl)cyclohexyl)-2-thia-6-azaspiro[3.4]octane 2,2-dioxide]
71 | 47 |  | O=S1(=O)CC2(CCN([C@H]3CC[C@H](c4cc(C(F)(F)F)nn4C4CC4)CC3)CC2)C1 [Compound 40B, 7-((1s,4s)-4-(1-cyclopropyl-3-(trifluoromethyl)-1H-pyrazol-5-yl)cyclohexyl)-2-thia-7-azaspiro[3.5]nonane 2,2-dioxide]
35 | 42 |  | O=S1(=O)CC2(CCN([C@@H]3CC[C@@H](c4ccc(C(F)(F)F)nc4)C3)C2)C1 (single isomer, unassigned) [Compound 11B, (Trans)-6-(3-(6-(Trifluoromethyl)pyridin-3-yl)cyclopentyl)-2-thia-6-azaspiro[3.4]octane 2,2-dioxide]
20 | 16 |  | Cc1cc(C(F)(F)F)cnc1[C@H]1CC[C@H](N2CCC3(C2)CS(=O)(=O)C3)CC1 [Compound 47B, 6-((1r,4r)-4-(3-methyl-5-(trifluoromethyl)pyridin-2-yl)cyclohexyl)-2-thia-6-azaspiro[3.4]octane 2,2-dioxide]
16 | 35 |  | O=S1(=O)CC2(CCN([C@H]3CC[C@H](c4ccc(C(F)(F)F)nc4)CC3)C2)C1 [Compound 14A, 6-((1r,4r)-4-(6-(Trifluoromethyl)pyridin-3-yl)cyclohexyl)-2-thia-6-azaspiro[3.4]octane 2,2-dioxide]
71 | 16 |  | CC(C)n1nc(C(F)(F)F)cc1[C@H]1CC[C@H](N2CCC3(C2)CS(=O)(=O)C3)CC1 [Compound 8A, 6-((1r,4r)-4-(1-isopropyl-3-(trifluoromethyl)-1H-pyrazol-5-yl)cyclohexyl)-2-thia-6-azaspiro[3.4]octane 2,2-dioxide]
1.8 | 100 |  | O=S1(=O)CC2(CCN([C@@H]3CC[C@@H](c4ccc(C(F)(F)F)cc4)C3)C2)C1 [Compound 1B, 6-((1R,3R)-3-(4-(trifluoromethyl)phenyl)cyclopentyl)-2-thia-6-azaspiro[3.4]octane 2,2-dioxide]
100 | 110 |  | Cn1nc(C(F)(F)F)cc1[C@H]1CC[C@@H](N2CCC3(CC2)CS(=O)(=O)C3)CC1 [Compound 25A, 7-((1s,4s)-4-(1-Methyl-3-(trifluoromethyl)-1H-pyrazol-5-yl)cyclohexyl)-2-thia-7-azaspiro[3.5]nonane 2,2-dioxide]
